Blank lines part the entries; values can stand above or below the molecule they belong to.
Assays:
β-catenin [1] = assay: β-catenin confocal microscopy in SF3B1-K700E BM cells; type: cell-based, mouse; settings: 24 hours treatment
Method: (§1) Immunofluorescence confocal microscopy. MDS and normal donor BM-MNC and mouse BM cells were stained with 30× FAM-FLICA® Caspase-1 solution at a ratio of 1:30 for 2 hours at 37° C. Cells were washed and cytospins were generated using a 5 minutes centrifugation at 450 rpm. Slides were fixed at 37° C. for 10 minutes using BD Cytofix Fixation Buffer (BD Biosciences), and subsequently washed using PBS. Cells were permeabilized with 0.1% Triton X-100/2% BSA in PBS for 15 minutes at room temperature. After washing with PBS, cells were blocked using 2% BSA in PBS for 30 minutes at room temperature, and washed again. Cells were incubated with the appropriate primary antibody overnight (1:400 for NLRP3, 1:20 for β-catenin) at 4° C. The next day, cells were washed with PBS and incubated with the appropriate secondary antibodies (1:500) for 1 hour at room temperature. After washing, cells were covered with ProLong Gold Antifade Reagent with DAPI prior to the addition of a coverslip (Life Technologies). Co-localization of a-caspase-1 with NLRP3 inflammasome complexes was assessed using a Leica TCS SP5 AOBS Laser Scanning Confocal microscope (Leica Microsystems). Analysis of the inflammasome images was performed with Definiens Developer 2.0 (Definiens AG). The software was used to segment cells based on brightness and size thresholds, followed by a watershed segmentation algorithm. […]

ROS [2] = assay: ROS detection by flow cytometry in SF3B1-K700E BM cells; type: cell-based, mouse; settings: NAC or DPI treatment
From the text: (§2) ROS detection. ROS were detected using CM-H2DCFDA and CellROX® Deep Red Reagent according to manufacturer's protocol (Life Technologies).

β-catenin [3] = assay: β-catenin confocal microscopy in U2AF1 S34F mutant TF-1 cells; type: cell-based; settings: treated for 24 hours prior to staining
Method: Reagents and cells. U937 cells were grown in RPMI1640 supplemented with 10% FBS. TF-1 U2AF1 mutant and mock WT cells were cultured in RPMI1640 supplemented with 10% FBS and 2 ng/mL recombinant human GM-CSF. Cells were maintained at 37° C. under 5% CO2. Normal, heparinized BM aspirates were purchased from Lonza Walkersville or AllCells, LLC. […] J Clin Invest. 2013 123(11):4595-611). The IRAK4 inhibitor was acquired through material transfer agreement from Nimbus Discovery. NAC and DPI were purchased from Sigma-Aldrich. Active caspase-1 and caspase-3/7 were detected using FAM-FLICA® Caspase-1 and Caspase-3/7 activity kits, (ImmunoChemistry Technologies). NLRP1 antibodies were purchased from Santa Cruz Biotechnology, NLRP3 antibodies from Abcam, and β-catenin antibodies from BD Biosciences. Immunofluorescence confocal microscopy. MDS and normal donor BM-MNC and mouse BM cells were stained with 30× FAM-FLICA® Caspase-1 solution at a ratio of 1:30 for 2 hours at 37° C. Cells were washed and cytospins were generated using a 5 minutes centrifugation at 450 rpm. Slides were fixed at 37° C. for 10 minutes using BD Cytofix Fixation Buffer (BD Biosciences), and subsequently washed using PBS. […] Co-localization of a-caspase-1 with NLRP3 inflammasome complexes was assessed using a Leica TCS SP5 AOBS Laser Scanning Confocal microscope (Leica Microsystems). […]

inflammasome = assay: ASC staining flow cytometry for inflammasome formation in SF3B1-K700E BM cells; type: cell-based, mouse; settings: 24 hours treatment
Method: ASC staining to detect inflammasome formation by flow cytometry. Staining was carried out as described ([…], et al. J Immunol. 2015 194(1):455-62). Briefly, cell pellets were resuspended in 1 mL of prewarmed BD Permeabilization Buffer III, and incubated on ice for 30 minutes. Cells were washed 2× with staining buffer. Following washing, cells were stained with rabbit-anti-ASC primary antibodies at a 1:1500 dilution and incubated for 90 minutes. Cells were washed, stained with secondary antibodies at a dilution of 1:1500, and incubated for 45 minutes. Cells were washed, and sample acquisitions were carried out using a BD LSR II flow cytometer and FACSDiva software.

β-catenin [4] = assay: β-catenin confocal microscopy in normal BM-MNC; type: cell-based, human
Method: as §1

NLRP3 inflammasome [5] = assay: Confocal microscopy of a-caspase-1/NLRP3 in normal BM-MNC treated with rhS100A9; type: cell-based, human; settings: 5 μg/mL, 24 hours
Method: (§3) Immunofluorescence confocal microscopy. MDS and normal donor BM-MNC and mouse BM cells were stained with 30× FAM-FLICA® Caspase-1 solution at a ratio of 1:30 for 2 hours at 37° C. Cells were washed and cytospins were generated using a 5 minutes centrifugation at 450 rpm. Slides were fixed at 37° C. for 10 minutes using BD Cytofix Fixation Buffer (BD Biosciences), and subsequently washed using PBS. Cells were permeabilized with 0.1% Triton X-100/2% BSA in PBS for 15 minutes at room temperature. After washing with PBS, cells were blocked using 2% BSA in PBS for 30 minutes at room temperature, and washed again. Cells were incubated with the appropriate primary antibody overnight (1:400 for NLRP3, 1:20 for β-catenin) at 4° C. The next day, cells were washed with PBS and incubated with the appropriate secondary antibodies (1:500) for 1 hour at room temperature. After washing, cells were covered with ProLong Gold Antifade Reagent with DAPI prior to the addition of a coverslip (Life Technologies). Co-localization of a-caspase-1 with NLRP3 inflammasome complexes was assessed using a Leica TCS SP5 AOBS Laser Scanning Confocal microscope (Leica Microsystems). Analysis of the inflammasome images was performed with Definiens Developer 2.0 (Definiens AG). The software was used to segment cells based on brightness and size thresholds, followed by a watershed segmentation algorithm. Intensity values and Pearson's correlation coefficient were extracted from the segmented cells. For β-catenin image analysis, confocal images were imported into Definiens Tissue Studio v3.0, 64 Dual in .tif format. Cells were separated from background using the RGB thresholds. Nuclei were identified by setting thresholds in the DAPI channel. Typical cells averaged 60 microns. The red intensity (β-catenin) in the nucleus and cytoplasm was established by setting thresholds to low, medium and high in the red channel on a scale of 0-255 in the red channel.

NLRP3 inflammasome [6] = biological target: T1, NLRP3 inflammasome (Homo sapiens, UniProt Q96P20); assay: Confocal microscopy of a-caspase-1/NLRP3 inflammasome formation in U937 cells; type: cell-based; settings: 5 μg/mL, 24 hours
T1 construct: endogenous in cells; host or cells: U937 cells

ROS [7] = assay: ROS detection by flow cytometry in U937 cells; type: cell-based; settings: U937, 5 μg/mL, 24 hours, compared to untreated cells
From the text: as §2

U937 cells [8] = assay: Pore formation, ethidium bromide uptake in U937 cells; type: cell-based; settings: U937, 5 μg/mL rhS100A9, 12.5 μg/mL ethidium bromide
β-catenin [9] = assay: β-catenin confocal microscopy in U937 cells; type: cell-based; settings: 5 μg/mL, 24 hours, compared to untreated cells
NLRP3 inflammasome [10] = assay: Confocal microscopy of a-caspase-1/NLRP3 in WT mouse BM cells treated with rhS100A9; type: cell-based; settings: 5 μg/mL, 24 hours
Method: as §3

U937 cells [11] = assay: Comet assay of DNA damage in U937 cells; type: cell-based; settings: U937, 5 μg/mL, 24 hours, compared to untreated cells
Method: Comet assays. Monocytic U937 cells were treated with 5 μg/mL rhS100A9 for 24 hr. DNA damage was measured by single cell gel electrophoresis using alkaline CometAssay® according to manufacturer's protocol (Trevigen Inc.).

[12] = tested on: pyroptosis-associated genes; assay: qPCR of pyroptosis-associated genes in normal BM-MNC treated with rhS100A9; type: cell-based, human; settings: normal BM-MNC (n=2), 1 μg/mL, 24 hours
Method: Real-time quantitative PCR. RNA was isolated from BM-MNC using the RNeasy Mini Kit (Qiagen). cDNA was produced using the iScript cDNA Synthesis Kit (Bio-Rad). Sequences for primers can be found in Table 1. GAPDH mRNA was used for transcript normalization. cDNA was amplified using the iQ SYBR Green Supermix and the CFX96 Real-Time PCR Detection System (Bio-Rad). PCR conditions were as follows: 10 minutes at 95° C., followed by 40 cycles of amplification (15 seconds at 95° C. and 1 minute at 60° C.). Relative gene expression was calculated using the −2^ΔΔCt method.

U937 cells [13] = assay: S100A9 flow cytometry experiments in U937 cells (a-caspase-1/annexin-V); type: cell-based
Method: S100A9 flow cytometry experiments in U937 cells. Monocytic U937 cells were treated with the indicated concentrations of rhS100A9 for 24 hours, or with 5 μg/mL rhS100A9 for the indicated time points. Subsequently, cells were stained with 30× FAM-FLICA® Caspase-1 solution at a ratio of 1:30 for 2 hours at 37° C. Cells were washed, resuspended in 1× binding buffer, and stained with Annexin-V:PE at a dilution of 1:30 for 15 minutes at room temperature. 1× binding buffer was added to a final volume of 350 μL. Sample acquisitions were carried out using a BD FACSCalibur flow cytometer (BD Biosciences). Data were analyzed using FlowJo 9.7.5 software.

[14] = increasing concentrations, 24 hours

T1 sequence (Q96P20 whole entry): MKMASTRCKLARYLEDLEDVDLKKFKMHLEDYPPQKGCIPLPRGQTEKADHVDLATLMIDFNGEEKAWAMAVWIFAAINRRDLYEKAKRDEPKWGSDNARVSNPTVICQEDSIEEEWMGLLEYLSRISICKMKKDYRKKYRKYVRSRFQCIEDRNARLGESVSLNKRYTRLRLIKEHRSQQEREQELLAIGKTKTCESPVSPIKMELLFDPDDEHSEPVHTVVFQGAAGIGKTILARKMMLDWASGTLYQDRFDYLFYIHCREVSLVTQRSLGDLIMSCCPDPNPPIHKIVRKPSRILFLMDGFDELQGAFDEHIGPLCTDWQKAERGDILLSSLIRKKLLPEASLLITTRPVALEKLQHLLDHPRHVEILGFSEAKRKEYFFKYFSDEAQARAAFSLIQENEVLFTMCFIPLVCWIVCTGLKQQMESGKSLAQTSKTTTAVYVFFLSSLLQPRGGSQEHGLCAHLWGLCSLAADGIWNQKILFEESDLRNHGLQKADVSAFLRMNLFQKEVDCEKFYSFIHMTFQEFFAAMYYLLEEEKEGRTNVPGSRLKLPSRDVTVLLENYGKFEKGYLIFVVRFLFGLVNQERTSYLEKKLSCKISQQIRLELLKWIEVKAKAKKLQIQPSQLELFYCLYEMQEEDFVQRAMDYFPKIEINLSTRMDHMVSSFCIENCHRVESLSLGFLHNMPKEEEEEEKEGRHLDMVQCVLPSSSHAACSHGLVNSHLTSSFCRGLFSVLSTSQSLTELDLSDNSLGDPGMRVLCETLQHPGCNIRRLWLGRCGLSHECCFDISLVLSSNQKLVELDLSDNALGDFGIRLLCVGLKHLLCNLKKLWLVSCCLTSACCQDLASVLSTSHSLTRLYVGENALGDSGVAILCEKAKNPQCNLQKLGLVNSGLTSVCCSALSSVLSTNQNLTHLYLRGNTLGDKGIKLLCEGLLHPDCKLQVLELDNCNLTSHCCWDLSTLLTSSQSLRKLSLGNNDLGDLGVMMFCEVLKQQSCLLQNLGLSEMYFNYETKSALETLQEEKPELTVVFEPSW

Molecule: c1ccc2c(c1)[I+]c1ccccc1-2 [DPI]
percentage of cells with elevated levels of nuclear β-catenin in SF3B1-K700E BM cells (β-catenin [1]): significantly reduced
ROS MFI in SF3B1-K700E BM cells (ROS [2]): extinguished below the level of WT controls
mean percentage of ROS+ cells in SF3B1-K700E BM cells (ROS [2]): extinguished below the level of WT controls
β-catenin activation in U2AF1-S34F mutant cells (β-catenin [3]): effectively reduced
inflammasome formation (ASC) in SF3B1-K700E mutant-expressing BM cells (inflammasome): significantly reduced

Molecule: CC(=O)N[C@@H](CS)C(=O)O [NAC, N-acetylcysteine]
percentage of cells with elevated levels of nuclear β-catenin in SF3B1-K700E BM cells (β-catenin [1]): significantly reduced
ROS MFI in SF3B1-K700E BM cells (ROS [2]): extinguished below the level of WT controls
mean percentage of ROS+ cells in SF3B1-K700E BM cells (ROS [2]): extinguished below the level of WT controls
S100A9-triggered nuclear translocation of β-catenin in normal BM-MNC (β-catenin [4]; S100A9 treatment of normal BM-MNC): abolished
β-catenin activation in U2AF1-S34F mutant cells (β-catenin [3]): effectively reduced
inflammasome formation (ASC) in SF3B1-K700E mutant-expressing BM cells (inflammasome): significantly reduced

levels of NLRP3 inflammasome complexes in U937 (NLRP3 inflammasome [6]): markedly increased
Molecule: rhS100A9: recombinant human S100A9, alarmin / DAMP protein, TLR4 and CD33 ligand
NLRP3 levels, fold induction (NLRP3 inflammasome [5]): 47.1 fold
a-caspase-1 levels, fold induction (NLRP3 inflammasome [5]): 2.5 fold
formation of NLRP3 inflammasomes, fold induction (NLRP3 inflammasome [5]): 2.9 fold
levels of nuclear β-catenin in normal BM-MNC (β-catenin [4]; 5 μg/mL, 24 hours, compared to controls): elevated levels
fold increase in mean percentage of ROS-positive cells (ROS [7]): 2.9 fold
uptake of ethidium bromide (U937 cells [8]): rapid and substantial uptake
levels of nuclear (activated) β-catenin in U937 (β-catenin [9]): marked increases
inflammasome complexes (NLRP3 inflammasome [10]): marked induction
MFI of NLRP3 (NLRP3 inflammasome [10]; versus controls): significantly increased
MFI of a-caspase-1 (NLRP3 inflammasome [10]; versus controls): significantly increased
fold increase in DNA damage (U937 cells [11]): 4.1 fold
expression of pyroptosis-associated genes [12]: significantly up-regulated
activation of caspase-1 in U937 over time (U937 cells [13]; 5 μg/mL): time-dependent increase
a-caspase-1 MFI in U937 (U937 cells [13]; [14]): corresponding increase
fraction of pyroptotic cells in U937 (U937 cells [13]; [14]): concentration-dependent increase
percentage of a-caspase-1+ cells in U937 (U937 cells [13]; [14]): corresponding increase

From patent US10488411B2, “Inflammasome activation in myelodysplastic syndromes” (H. LEE MOFFITT CANCER CENTER AND RESEARCH INSTITUTE, INC., priority 2015, dated 2019)
